The values that follow come from publication PMC10817097, “Caffeic Acid Phosphanium Derivatives: Potential Selective Antitumor, Antimicrobial and Antiprotozoal Agents” (International Journal of Molecular Sciences, 2024).

The test system of series [1] is MCF-10A cell line (human mammary gland epithelial cells). In words: MTS cell proliferation/viability assay, control cells. Format: cell-based. Particulars: MCF-10A control cells, 72 h. The procedure: (§1) The human cancer cell line HCT116 (human colorectal adenocarcinoma), HeLa (human cervical adenocarcinoma), Jurkat (human leukemic T cell lymphoma), and MDA-MB-231 (human mammary gland adenocarcinoma, triple-negative) were cultured in RPMI 1640 medium (Biosera, Kansas City, MO, USA). MCF-7 (human breast adenocarcinoma), A2058 (human metastatic melanoma), PANC-1 (human pancreatic adenocarcinoma), and NIH 3T3 (murine fibroblasts) cell lines were maintained in a growth medium consisting of high glucose Dulbecco’s Modified Eagle Medium with sodium pyruvate (Biosera, Kansas City, MO, USA). MCF-10A cell line (human mammary gland epithelial cells) was maintained in a growth medium consisting of high glucose DMEM F12 Medium (Biosera, Kansas City, MO, USA) + Suppl. (insulin, EGF-[…], HC-hydrocortisone, choleratoxin all Sigma, Steinheim, Germany). The growth medium was supplemented with a 10% fetal bovine serum, penicillin (100 IU/mL), and streptomycin (100 μg/mL) (all Invitrogen, Carlsbad, CA, USA), and cells were maintained in an atmosphere containing 5% CO2 in humidified air at 37 °C. Cell viability, estimated by trypan exclusion, was greater than 95% before each experiment.
(§2) The metabolic activity colorimetric assay (MTS) was used to determine the effects of CA (c = 10–300 µM) and compounds CAP 6, CAP 8, CAP 10, and CAP 12 (c = 1–100 µM) on the metabolic activity of several cell lines. After 72 h of incubation, 10 µL of MTS (Promega, Madison, WI, USA) was added to each well according to the CellTiter 96® AQueous One Solution Cell Proliferation Assay protocol. After a minimum of 1 h incubation, the absorbance was measured at 490 nm using the automated Cytation^TM 3 Cell Imaging Multi-Mode Reader (Biotek, Winooski, VT, USA). The absorbance of the control wells was taken as 1.0 (100%), and the results were expressed as a fold of the control. All experiments were performed in triplicate. Ideal predictive IC50 values were calculated from MTS analyses-based concentration concentration-dependent trends.

Series [2] concerns NIH 3T3 (murine fibroblasts). Described as above. Type of series: cell-based. Particulars: Mus musculus, NIH3T3, NIH 3T3 control cells, 72 h. The procedure:
as §1, §2

Series [3] relates to A. lugdunensis (AcaVNAK02). In words: Amoebicidal activity assay on trophozoites. Type of series: cell-based. As to conditions: Acanthamoeba lugdunensis, 24 h of incubation. The procedure: (§3) The activity against two clinical isolates of free-living amoebae, Acanthamoeba lugdunensis (strain AcaVNAK02) and Acanthamoeba quina (strain AcaVNAK03), both belonging to the T4 genotype, was tested in vitro as previously described. The trophozoites were cultivated in 25 cm^2 tissue culture flasks under axenic conditions in peptone-yeast extract-glucose medium (PYG). The cultivation was carried out under aerobic conditions at laboratory temperature. For the experiments, a fresh 72 h culture was used. Acanthamoebae adherent to flasks represented the trophozoite form and was used in the subsequent assay. Experiments were carried out in 96-well microtiter plates under sterile conditions at 37 °C. Each well was seeded with 100 µL (2 × 10^5 cells mL^−1) of a trophozoite suspension. Then, 100 µL of a freshly prepared medium containing a tested compound at 6 different concentrations was added to all wells, except for the untreated control wells that received 100 µL of the pure medium. Each compound was tested at final concentrations of 500, 250, 125, 62.5, 31.25, and 15.6 µM. The reduction of trophozoites was recorded after 24 h by counting the surviving cells in a Bürker–Türk hemocytometer. The growth control after 24 h (amoebae in inoculum without treatment): A. lugdunensis (AcaVNAK02): 2.5 × 10^5 cells mL^−1, A. quina (AcaVNAK03): 2.1 × 10^5cells/mL comparing to initial inoculum 1 × 10^5 cells mL^−1. The viability of trophozoites was determined by trypan blue exclusion. The EC50 (effective concentration of tested compound that reduces the survival of amoebae by 50%) values were calculated by linear regression analysis using Microsoft Office Excel 2016 (Microsoft Corporation, Redmond, WA, USA) software. All experiments were performed in quadruplicate for each concentration.

Series [4] deals with A. quina (AcaVNAK03). In words: Amoebicidal activity assay on trophozoites. Format: cell-based. As to conditions: Acanthamoeba quina, 24 h of incubation. Here is the method:
as §3

The nature of series [5]: Equilibrium surface tension measurements (Wilhelmy plate). Particulars: 25 °C; for cmc (critical micelle concentration) / γcmc (surface tension at the cmc): aqueous solution; for Acmc (surface area per head group at surface saturation): water/air interface, from Gibbs adsorption isotherm. Format: physicochemical. The procedure: The physicochemical properties of the compounds were investigated by the measurements of surface tension of their aqueous solutions. The critical micelle concentration (cmc), the surface tension value at the cmc (γcmc), and the surface area per head group at the surface saturation (Acmc) were determined.
The equilibrium surface tension measurements were carried out according to the procedure described previously. The Wilhelmy plate technique was used for the determination of the solvent surface tension values. Measurements were performed with a Krüss 100 MK2 tensiometer. All samples were prepared by dissolving amphiphilic compounds in deionized water. The stock solutions were prepared in a volumetric flask. The measurements were performed at 25 ± 0.1 °C. The measurements of equilibrium surface tension were taken repeatedly. The values were recorded every 360 s. The measurement was stopped if the difference between the values of two successive measurements was less than 5 × 10^−5 N·m^−1. The breakpoint of the linear parts of the surface tension vs. log c curve was used for the determination of the critical micelle concentration (cmc) and surface tension at the cmc (γcmc). The adsorbed amount of surfactant Γcmc was also determined from surface tension data. The value was calculated using the Gibbs adsorption isotherm: Γcmc=dγ/dlogcT/2.303iRT where γ represents the surface tension (mN/m), c is the concentration of surfactant, i represents the prefactor (CAP have i = 2), R is the gas constant, and T represents the absolute temperature. The slope below the cmc in the surface tension vs. log c plots was used for the determination of the surface excess. The values of area per head group at the water/air interface (Acmc) were obtained from the following equation: Acmc=10^18/NAΓcmc where NA represents the Avogadros constant.

Turning to `O=C(O)C=Cc1ccc(O)c(O)c1` [CA, 3-(3,4-dihydroxyphenyl)-2-propenoic acid, reference compound], the IC50 in series [1] and in series [2] was above 300 µM each time. Moreover, the EC50 in series [3] is above 100000 µM; in series [4], 3000 ± 1510 µM.

In the case of `CC(=O)Oc1ccc(/C=C/C(=O)OCCCCCC[P+](c2ccccc2)(c2ccccc2)c2ccccc2)cc1OC(C)=O` [CAP 6, P,P,P-triphenyl-6-{(2E)-3-[3,4-(diacetyloxy)penyl]prop-2-enoyloxy}hexane-1-phosphanium bromide], the “cmc (critical micelle concentration)” value in series [5] is given as 7.5 × 10^−3 mol·dm^−3. In addition, the “γcmc (surface tension at the cmc)” value in series [5] is 36.4 mN·m^−1. For the same compound, the “Acmc (surface area per head group at surface saturation)” value in series [5] came out at 0.84 nm^2. The IC50 was found to be 53.7 ± 0.2 µM in series [1] and 44.4 ± 2.6 µM in series [2]. The results for the EC50 in series [3] and in series [4] were 74.2 ± 18.4 µM and 44.1 ± 9.2 µM, respectively.

With `CC(=O)Oc1ccc(/C=C/C(=O)OCCCCCCCC[P+](c2ccccc2)(c2ccccc2)c2ccccc2)cc1OC(C)=O` [CAP 8, P,P,P-triphenyl-8-{(2E)-3-[3,4-(diacetyloxy)penyl]prop-2-enoyloxy}okctane-1-phosphanium bromide], in series [5], the “cmc (critical micelle concentration)” value is reported as 5.2 × 10^−3 mol·dm^−3, the “γcmc (surface tension at the cmc)” value amounted to 37.7 mN·m^−1 and the “Acmc (surface area per head group at surface saturation)” value was 0.82 nm^2. The same compound registered an IC50 in series [1] of 42.3 ± 1.1 µM. Also, the IC50 in series [2] was 38.2 ± 1.8 µM. The same compound returned a concentration giving a half-maximal response (EC50) in series [3] of 99.8 ± 23.7 µM. The compound further displayed an EC50 in series [4] of 94.1 ± 14.5 µM.

On to `CC(=O)Oc1ccc(/C=C/C(=O)OCCCCCCCCCC[P+](c2ccccc2)(c2ccccc2)c2ccccc2)cc1OC(C)=O` [CAP 10, P,P,P-triphenyl-10-{(2E)-3-[3,4-(diacetyloxy)penyl]prop-2-enoyloxy}decane-1-phosphanium bromide], for which, in series [5], the “cmc (critical micelle concentration)” value is 2.2 × 10^−3 mol·dm^−3, the “γcmc (surface tension at the cmc)” value amounted to 37.1 mN·m^−1 and the “Acmc (surface area per head group at surface saturation)” value came out at 1.02 nm^2. Moreover, half-maximal inhibition in series [1] (IC50) was put at 31.1 ± 2.3 µM. Besides, the IC50 in series [2] is 28 ± 1.3 µM. In series [3], this compound showed an EC50 of 834 ± 303 µM. In series [4], this compound yielded an EC50 of 291 ± 36.8 µM.

With `CC(=O)Oc1ccc(/C=C/C(=O)OCCCCCCCCCCCC[P+](c2ccccc2)(c2ccccc2)c2ccccc2)cc1OC(C)=O` [CAP 12, P,P,P-triphenyl-12-{(2E)-3-[3,4-(diacetyloxy)penyl]prop-2-enoyloxy}dodecane-1-phosphanium bromide], in series [5], the “cmc (critical micelle concentration)” value was 1.0 × 10^−3 mol·dm^−3, the “γcmc (surface tension at the cmc)” value is 39.4 mN·m^−1 and the “Acmc (surface area per head group at surface saturation)” value stood at 1.33 nm^2. Also, the IC50 in series [1] is 33.7 ± 1.5 µM. In series [2], this compound had an IC50 of 32.5 ± 0.9 µM. For the same compound, the response in series [3] was half-maximal at 3120 ± 941 µM (EC50). Also, the EC50 in series [4] is 3320 ± 2060 µM.

A word on the IC50: it is the concentration needed to halve the response being measured. High values mean a need for much substance, low ones inhibition by little substance. The term EC50 denotes the concentration at which the effect is half-maximal. The low end stands for higher potency in that assay, the high end for lower potency in that assay.
